Measurements: patent publication US20100331267A1, “USE OF CYCLOHEXANEHEXOL DERIVATIVES IN THE TREATMENT OF ALPHA-SYNUCLEINOPATHIES” (priority 2007, published 2010)

What was measured:
Aβ peptide fibrils = conditions: stated as previously shown; cited from earlier work
[1] = molecular target: T1, A53T mutant of α-synuclein (Homo sapiens, UniProt P37840, A53T); assay: Negative stain electron microscopy of α-synuclein fibre formation; format: biochemical
T1 construct: made in house; host or cells: E. coli
Procedure: (§1) α-Synuclein will be purified from E. coli expressing the native and the aggregation prone A53T mutant proteins via chromatography on a Q-sepharose column.[10, 12] Recombinant α-synuclein spontaneously aggregates into fibers upon incubation at high concentrations 2 mg/ml. To assay the α-synuclein aggregation the proteins will then be incubated at 37° C. (50 mM Tris, pH 7.5) with shaking in the presence and absence of the inositols in varying ratios from 1:1 to 1:100 protein:inositol. The products of these incubations will be evaluated with the biophysical techniques discussed below. Negative stain electron microscopy is an excellent tool to examine the gross morphology of the protein aggregates formed. Samples will be examined as a function of time and scyllo-inositol concentrations.

α-synuclein = molecular target: T2, α-synuclein (Homo sapiens, UniProt P37840, A53T); assay: Thioflavin T binding assay of α-synuclein aggregation; format: biochemical; conditions: α-synuclein 2 mg/ml, 24 hrs at 37° C., scyllo-inositol 1:20 ratio by weight
T2 construct: made in house; host or cells: E. coli
Procedure: as §1, with “below.” for “below. Negative stain electron microscopy is an excellent tool to examine the gross morphology of the protein aggregates formed. Samples will be examined as a function of time and scyllo-inositol concentrations.”
Fluorimetry. Fluorescent probes are exceptionally useful to follow the aggregation kinetics of proteins. Two fluorescent probes, Thioflavin T (ThT) and 1-Anilinonaphthalene-8-sulfonic acid (ANS) are the most commonly used probes for α-synuclein. […] Thus, the amyloid fibrils formed from the proteins used in these studies bind ThT and binding is monitored by an increase in fluorescence intensity. Oligomers other than the amyloid fibrils can also have significant β-sheet character and bind ThT. ANS binds to hydrophobic unstructured proteins and is complementary to ThT fluorescence assays. Upon binding in a hydrophobic environment ANS undergoes an increase in quantum yield and a blue shift in its fluorescence emission maximum.

## O[C@H]1[C@H](O)[C@@H](O)[C@H](O)[C@@H](O)[C@@H]1O [scyllo-inositol]
Aβ peptide fibrils
  disaggregation of preformed Aβ peptide fibrils: able to disaggregate preformed Aβ peptide fibrils
[1]; A53T mutant, after 24 hours of incubation at 37° C., without compound: characteristic α-synuclein fibrils
  aggregates produced (negative stain EM, FIG. 1): a few thin fibrils with the majority of the visible protein being present as amorphous aggregates
[1]; α-synuclein 2 mg/ml, scyllo-inositol 1:20 ratio by weight, 2 days at 37° C., alone: long mature fibres
  α-synuclein fibres formed (negative stain electron microscopy, FIG. 1 legend): only small aggregates could be detected
α-synuclein
  Thioflavin T fluorescence (FIG. 2): fluorescence increases upon short incubations with scyllo-inositol and the fluorescence decreases with time
